Test results as given in patent US12180139B2, “Method for preparing aminoalkanoic acid derivative containing biphenyl group” (AMTIXBIO CO., LTD., priority 2019, dated 2024).

Assays:
E. coli (−) = experiment: Antibacterial MIC test (CLSI); type: cell-based; conditions: MHB liquid medium, 37° C., 24 hours
Method: (§1) The MIC test was conducted in accordance CLSI guidelines. […] As a positive control, Nofloxacin and Vancomycin were used.

M. luteus (+) = experiment: Antibacterial MIC test (CLSI); type: cell-based; conditions: MHB liquid medium, 37° C., 24 hours
Method: as §1

L. monocytogenes (+) = experiment: Antibacterial MIC test (CLSI); type: cell-based; conditions: MHB liquid medium, 37° C., 24 hours
Method: as §1

B. subtilis (+) = experiment: Antibacterial MIC test (CLSI); type: cell-based; conditions: MHB liquid medium, 37° C., 24 hours
Method: as §1

B. cereus (+) = experiment: Antibacterial MIC test (CLSI); type: cell-based; conditions: MHB liquid medium, 37° C., 24 hours
Method: as §1

S. aureus enterica (−) = experiment: Antibacterial MIC test (CLSI); type: cell-based; conditions: MHB liquid medium, 37° C., 24 hours
Method: as §1

P. acnes (+) = experiment: Antibacterial MIC test (CLSI); type: cell-based; conditions: MHB liquid medium, 37° C., 24 hours
Method: as §1

B. coagulans (+) = experiment: Antibacterial MIC test (CLSI); type: cell-based; conditions: MHB liquid medium, 37° C., 24 hours
Method: as §1

A. fumigatus = conditions: visual reading; expressed as a range value
C. glabrata = conditions: RPMI1640 broth, 35° C., 48 hours, visual reading; expressed as a range value
C. albicans = conditions: RPMI1640 broth, 35° C., 48 hours, visual reading; expressed as a range value
Method: An in vitro antifungal susceptibility test was performed in accordance with the US Clinical and Laboratory Standards Institute (CLSI) guidelines to measure the degree of antifungal activity of the compounds synthesized in the Preparation Examples against opportunistic pathogenic fungi. […] The MIC value (μg/ ? ) is expressed as a range value. Specifically, Candida species and Cryptococcus neoformans were incubated in a Sabouraud dextrose agar (SDA) (Sigma-Aldrich) solid medium for 24 and 48 hours, respectively to obtain single colonies. The obtained single colonies were suspended in 0.85% physiological saline to prepare fungal cell suspension (1 to 5×10^6 cells/ ? ). Fungal cells 2000-fold diluted in RPMI1640 broth (Sigma-Aldrich) were seeded on 96-well plates (5×10^2 to 2.5×10^3 cells/ ? , 195 ? /well). Serial two-fold dilutions (128, 64, 32, 16, 8, 4, 2, 1, and 0.5 μg/ ? ) of compounds were prepared by diluting the compounds synthesized according to the above preparation examples. Then, 5 ? from each dilution was added to the well of the 96-well plate containing fungal cell suspension to give a final suspension of 200 ? per well. […] As a positive control, amphotericin B (AMB), which is highly toxic to the human body but is known as a representative antifungal agent, was used.

MRSA = experiment: Antibacterial MIC test (CLSI); type: cell-based, Methicillin-resistant Staphylococcus aureus; conditions: MHB liquid medium, 37° C., 24 hours
Method: as §1

S. aureus (+) = conditions: MHB liquid medium, 37° C., 24 hours
Method: (§2) The antibacterial activities against Gram-positive bacteria, Gram-negative bacteria or multi-drug resistant bacteria were evaluated for the compounds of the present invention. The MIC test was conducted in accordance CLSI guidelines. E. coli(−), P. aeruginosa(−), and S. enterica(−) were used as Gram-negative bacteria, B. cereus(+), B. subtilis(+), B. coagulans(+), L. monocytogenes(+), M. luteus(+), P. acnes(+), S. epidermidis(+), and S. aureus(+) were used as Gram-positive bacteria. Methicillin-resistant Staphylococcus aureus (MRSA) was used as multi-drug resistant bacteria. The bacterial cells were incubated until the OD600 of the single colonies reached 0.1. […] Subsequently, bacterial cells were incubated at 37° C. for 24 hours, and then the MICs (μg/ ? ) were determined by visual reading and optical density detection at 600 nm (OD600). As a positive control, Nofloxacin and Vancomycin were used.

S. epidermidis (+) = conditions: MHB liquid medium, 37° C., 24 hours
Method: as §2

C. neoformans = conditions: RPMI1640 broth, 35° C., 72 hours, visual reading; expressed as a range value

| SMILES | MIC E. coli (−) (E. coli (−)) | MIC M. luteus (+) (M. luteus (+)) | MIC L. monocytogenes (+) (L. monocytogenes (+)) | MIC B. subtilis (+) (B. subtilis (+)) | MIC B. cereus (+) (B. cereus (+)) | MIC S. aureus enterica (−) (S. aureus enterica (−)) | MIC P. acnes (+) (P. acnes (+)) | MIC B. coagulans (+) (B. coagulans (+)) | MIC (μg/mL) A. fumigatus (A. fumigatus) | MIC (μg/mL) C. glabrata (C. glabrata) | MIC (μg/mL) C. albicans (C. albicans) | MIC MRSA (MRSA) | MIC S. aureus (+) (S. aureus (+)) | MIC S. epidermidis (+) (S. epidermidis (+)) | MIC (μg/mL) C. neoformans (C. neoformans) |
| --- | --- | --- | --- | --- | --- | --- | --- | --- | --- | --- | --- | --- | --- | --- | --- |
| CCC(NC)C(=O)NCCc1ccc(-c2ccc(OC(F)(F)F)cc2)cc1.Cl (racemic) [Compound 89, (R)/(S)-2-(methylamino)-N-(2-(4′-(trifluoromethoxy)-[1,1′-biphenyl]-4-yl)ethyl)butanamide hydrochloride] | 16 µg/mL | 16 µg/mL | 16 µg/mL | 16 µg/mL | >64 µg/mL | 32 µg/mL | 16 µg/mL | <4 µg/mL | 8~32 μg/mL | 8~32 μg/mL | 8~32 μg/mL | 32 µg/mL | 32 µg/mL | 16 µg/mL | 8~32 μg/mL |
| CCC(N)C(=O)NCCc1ccc(-c2ccc(Cl)c(Cl)c2)cc1.Cl (racemic) [Compound 73, (R)/(S)-2-amino-N-(2-(3′,4′-dichloro-[1,1′-biphenyl]-4-yl)ethyl)butanamide hydrochloride] | 8 µg/mL | 8 µg/mL | 8 µg/mL | 8 µg/mL | 32 µg/mL | 16 µg/mL | 8 µg/mL | <4 µg/mL | 8~32 μg/mL | 8~32 μg/mL | 8~32 μg/mL | 8 µg/mL | 8 µg/mL | 8 µg/mL | 2~8 μg/mL |
| CCCC(NC)C(=O)NCc1ccc(-c2ccc(Cl)c(Cl)c2)cc1.Cl (racemic) [Compound 51, (R)/(S)-N-((3′,4′-dichloro-[1,1′-biphenyl]-4-yl)methyl)-2-(methylamino)pentanamide hydrochloride] | >32 µg/mL | 16 µg/mL | 16 µg/mL | 16 µg/mL | 32 µg/mL | >32 µg/mL | 16 µg/mL | 4 µg/mL | 4~16 μg/mL | 4~16 μg/mL | 4~16 μg/mL | 16 µg/mL | 16 µg/mL | 16 µg/mL | 2~8 μg/mL |
| CCCCC(NC)C(=O)NCCc1ccc(-c2ccc(OC(F)(F)F)cc2)cc1.Cl (racemic) [Compound 91, (R)/(S)-2-(methylamino)-N-(2-(4′-(trifluoromethoxy)-[1,1′-biphenyl]-4-yl)ethyl)hexanamide hydrochloride] | 8 µg/mL | <4 µg/mL | <4 µg/mL | 16 µg/mL | 16 µg/mL | 16 µg/mL | <4 µg/mL | <4 µg/mL | 4~16 μg/mL | 4~16 μg/mL | 4~16 μg/mL | 8 µg/mL | 8 µg/mL | <4 µg/mL | 2~8 μg/mL |
| CCCCC(NC)C(=O)Nc1ccc(-c2ccc(Cl)c(Cl)c2)cc1.Cl (racemic) [Compound 35, (R)/(S)-N-(3′,4′-dichloro-[1,1′-biphenyl]-4-yl)-2-(methylamino)hexanamide hydrochloride] | <4 µg/mL | <4 µg/mL | >64 µg/mL | <4 µg/mL | <4 µg/mL | 64 µg/mL | <4 µg/mL | <4 µg/mL | 0.5~4 μg/mL | 0.5~4 μg/mL | 0.5~4 μg/mL | <4 µg/mL | 8 µg/mL | <4 µg/mL | 0.5~4 μg/mL |
| CCC(N)C(=O)NCCc1ccc(-c2ccc(OC(F)(F)F)cc2)cc1.Cl (racemic) [Compound 79, (R)/(S)-2-amino-N-(2-(4′-(trifluoromethoxy)-[1,1′-biphenyl]-4-yl)ethyl)butanamide hydrochloride] | 16 µg/mL | 16 µg/mL | 16 µg/mL | 16 µg/mL | 64 µg/mL | 32 µg/mL | 16 µg/mL | <4 µg/mL | 8~32 μg/mL | 8~32 μg/mL | 8~32 μg/mL | 16 µg/mL | 16 µg/mL | 8 µg/mL | 8~32 μg/mL |
| CCCCC(N)C(=O)NCCc1ccc(-c2ccc(C(F)(F)F)cc2)cc1.Cl (racemic) [Compound 78, (R)/(S)-2-amino-N-(2-(4′-(trifluoromethyl)-[1,1′-biphenyl]-4-yl)ethyl)hexanamide hydrochloride] | 8 µg/mL | 8 µg/mL | <4 µg/mL | <4 µg/mL | 16 µg/mL | 16 µg/mL | >64 µg/mL | <4 µg/mL | 4~16 μg/mL | 4~16 μg/mL | 4~16 μg/mL | 8 µg/mL | 8 µg/mL | 8 µg/mL | 2~8 μg/mL |
| CCCC(NC)C(=O)NCCc1ccc(-c2ccc(Cl)c(Cl)c2)cc1.Cl (racemic) [Compound 84, (R)/(S)-N-(2-(3′,4′-dichloro-[1,1′-biphenyl]-4-yl)ethyl)-2-(methylamino)pentanamide hydrochloride] | >32 µg/mL | 16 µg/mL | 16 µg/mL | 16 µg/mL | 32 µg/mL | >32 µg/mL | 16 µg/mL | 8 µg/mL | 4~1 μg/mL | 4~1 μg/mL | 4~1 μg/mL | 16 µg/mL | 16 µg/mL | 16 µg/mL | 2~8 μg/mL |
